Results taken from ChEMBL document CHEMBL1148468, “Design and synthesis of novel cyanoguanidine ATP-sensitive potassium channel openers for the treatment of overactive bladder” (Bioorg Med Chem Lett, 2004).

Assays:
[1] = target: Sulfonylurea receptor 2, Kir6.2 (Homo sapiens, UniProt O60706+Q14654); assay: (§1) In vitro ATP-sensitive potassium channel (KATP) activity in cells expressing human KATP channels Kir6.2 and sulfonylurea receptor 2B; format: functional
[2] = target: Sulfonylurea receptors; K-ATP channels (Sus scrofa); assay: In vitro functional potassium channel opening activity in tissue strips obtained from Landrace pig bladders(LPD)
[3] = target: Sulfonylurea receptor 2, Kir6.2 (Homo sapiens) (UniProt Q14654+O60706); assay: as §1; format: functional; settings: filed as antagonist

Chain of Sulfonylurea receptor 2, Kir6.2 (Q14654 whole entry): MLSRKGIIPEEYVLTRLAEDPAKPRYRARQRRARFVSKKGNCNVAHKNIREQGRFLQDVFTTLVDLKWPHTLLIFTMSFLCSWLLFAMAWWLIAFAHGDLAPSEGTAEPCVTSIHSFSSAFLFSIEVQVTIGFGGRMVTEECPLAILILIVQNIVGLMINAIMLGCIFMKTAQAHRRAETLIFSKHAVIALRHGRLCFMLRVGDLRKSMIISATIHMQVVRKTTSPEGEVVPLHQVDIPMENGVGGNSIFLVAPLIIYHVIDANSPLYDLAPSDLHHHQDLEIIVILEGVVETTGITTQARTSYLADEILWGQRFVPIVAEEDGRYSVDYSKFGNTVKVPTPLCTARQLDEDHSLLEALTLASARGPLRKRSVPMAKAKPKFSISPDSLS
Chain of Sulfonylurea receptor 2, Kir6.2 (O60706 whole entry): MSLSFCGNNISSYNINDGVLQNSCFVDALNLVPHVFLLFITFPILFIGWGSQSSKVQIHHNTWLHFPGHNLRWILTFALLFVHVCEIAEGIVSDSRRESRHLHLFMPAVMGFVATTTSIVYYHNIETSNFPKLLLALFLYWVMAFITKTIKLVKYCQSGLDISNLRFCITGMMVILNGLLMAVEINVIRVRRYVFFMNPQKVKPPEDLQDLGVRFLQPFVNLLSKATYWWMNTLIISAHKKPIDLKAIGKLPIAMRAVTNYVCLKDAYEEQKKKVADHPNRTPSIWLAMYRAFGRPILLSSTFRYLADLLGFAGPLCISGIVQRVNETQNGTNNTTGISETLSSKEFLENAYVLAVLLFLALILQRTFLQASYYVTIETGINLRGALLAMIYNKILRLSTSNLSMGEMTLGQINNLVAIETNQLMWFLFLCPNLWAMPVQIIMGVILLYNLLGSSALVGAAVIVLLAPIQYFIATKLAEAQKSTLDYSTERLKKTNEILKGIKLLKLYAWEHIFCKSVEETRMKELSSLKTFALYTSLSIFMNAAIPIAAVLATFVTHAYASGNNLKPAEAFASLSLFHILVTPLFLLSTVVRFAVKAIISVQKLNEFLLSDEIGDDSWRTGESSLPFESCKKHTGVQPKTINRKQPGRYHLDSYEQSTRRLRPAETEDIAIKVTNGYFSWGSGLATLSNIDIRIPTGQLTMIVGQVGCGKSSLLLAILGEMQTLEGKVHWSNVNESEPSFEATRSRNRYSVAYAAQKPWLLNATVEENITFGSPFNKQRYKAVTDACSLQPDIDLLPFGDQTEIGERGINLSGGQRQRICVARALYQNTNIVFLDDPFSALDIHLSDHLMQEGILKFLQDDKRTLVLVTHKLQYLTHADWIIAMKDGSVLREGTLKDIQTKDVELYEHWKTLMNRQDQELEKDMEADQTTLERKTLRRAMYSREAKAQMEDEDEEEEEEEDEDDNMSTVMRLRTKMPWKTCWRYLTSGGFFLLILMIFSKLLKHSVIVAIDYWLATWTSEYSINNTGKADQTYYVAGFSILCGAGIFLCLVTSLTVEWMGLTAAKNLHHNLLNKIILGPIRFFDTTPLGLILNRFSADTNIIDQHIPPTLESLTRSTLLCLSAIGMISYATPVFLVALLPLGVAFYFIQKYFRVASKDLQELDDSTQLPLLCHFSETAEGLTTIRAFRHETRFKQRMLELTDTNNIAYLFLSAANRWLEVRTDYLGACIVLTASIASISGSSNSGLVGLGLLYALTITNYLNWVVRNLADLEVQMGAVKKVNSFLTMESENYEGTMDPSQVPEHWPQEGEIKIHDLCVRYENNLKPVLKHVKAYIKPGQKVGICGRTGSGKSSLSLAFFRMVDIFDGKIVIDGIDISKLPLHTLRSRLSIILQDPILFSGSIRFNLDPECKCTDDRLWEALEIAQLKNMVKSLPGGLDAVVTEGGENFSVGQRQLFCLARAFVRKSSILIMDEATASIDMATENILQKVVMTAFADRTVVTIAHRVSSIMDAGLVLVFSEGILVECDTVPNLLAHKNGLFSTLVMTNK

Row | Compound | EC50 [1] [µM] | EC50 [2] [µM] | Log EC50 [3]
1 | CCC(CC)(CCC#N)C(NC(=O)c1ccc(Cl)cc1)NC(=NC#N)Nc1cccnc1 (stereo not drawn) | 5.01 | 5.01 | 
2 | CC(Cl)(Cl)[C@@H](NC(=O)c1ccc(Cl)cc1)N/C(=N/C#N)Nc1cccnc1 | 0.316 | 5.01 | 
3 | CC(C)(C)C(NC(=O)c1ccc(Cl)cc1)NC(Nc1cccnc1)=C(C#N)C#N (stereo not drawn) |  |  | Antagonist
4 | N#CN/C(=N\C(NC(=O)c1ccc(Cl)cc1)C(Cl)(Cl)Cl)Nc1cccnc1 (stereo not drawn) | 1 | 2 | 
5 | CC(Cl)(Cl)C(NC(=O)c1cccc(F)c1)N/C(=N/c1cccnc1)NC#N (stereo not drawn) | 3.98 |  | 
6 | O=C(NC(NC(=S)Nc1cccnc1)C(Cl)(Cl)Cl)c1ccc(Cl)cc1 (stereo not drawn) | 0.794 | 2 | 
7 | CC(Cl)(Cl)C(NC(=O)c1cc(F)cc(F)c1)N/C(=N/c1cccnc1)NC#N (stereo not drawn) | 3.98 | 5.01 | 
8 | CC(Cl)(Cl)C(NC(=O)c1cccc(Cl)c1)N/C(=N/c1cccnc1)NC#N (stereo not drawn) | 3.16 | 1.58 | 
9 | C=CCC(C)(C)C(NC(=O)c1ccc(Cl)cc1)NC(=NC#N)Nc1cccnc1 (stereo not drawn) | 20 |  | 
10 | CC(Cl)(Cl)C(NC(=O)c1ccc(Cl)cc1)NC(=NC#N)Nc1cccnc1 (stereo not drawn) | 2 | 2.51 | 
11 | Cc1cccc(C(=O)NC(/N=C(\NC#N)Nc2cccnc2)C(C)(Cl)Cl)c1 (stereo not drawn) | 5.01 |  | 
12 | CC(C)(C)C(NC(=O)c1ccc(Cl)cc1)N/C(=C/[N+](=O)[O-])Nc1cccnc1 (stereo not drawn) | > 100 |  | 
13 | CC(C)(C)C(NC(=O)c1ccc(Cl)cc1)N/C(=N/c1cccnc1)N[N+](=O)[O-] (stereo not drawn) | 31.6 | 7.94 | 
14 | CN(C)S(=O)(=O)N/C(=N\C(NC(=O)c1ccc(Cl)cc1)C(C)(C)C)Nc1cccnc1 (stereo not drawn) | > 100 |  | 
15 | Cc1ccc(C(=O)NC(/N=C(\NC#N)Nc2cccnc2)C(C)(Cl)Cl)cc1 (stereo not drawn) | 2.51 |  | 

Second part, the compound after the results:

Row | EC50 [1] [µM] | EC50 [2] [µM] | Log EC50 [3] | Compound
16 | 2.51 | 7.94 |  | CC(C)(C)C(NC(=O)c1ccc(Cl)cc1)N/C(S)=N/c1cccnc1 (stereo not drawn)
17 | > 100 |  |  | CC(C)(C)C(NC(=O)c1ccc(Cl)cc1)N/C(=N/c1cccnc1)NS(N)(=O)=O (stereo not drawn)
18 | 10 |  |  | CC(Cl)(Cl)C(NC(=O)c1ccc(Br)cc1)N/C(=N/c1cccnc1)NC#N (stereo not drawn)
19 | 10 |  |  | C=CC(C)(C)CC(NC(=O)c1ccc(Cl)cc1)N/C(=N/c1cccnc1)NC#N (stereo not drawn)
20 | 6.31 | 20 |  | CC(C)(C)C(NC(=O)c1ccc(Cl)cc1)N/C(=N/c1cccnc1)NC#N (stereo not drawn)
21 | > 100 |  |  | CCCCC(C)(C)C(NC(=O)c1ccc(Cl)cc1)N/C(=N/c1cccnc1)NC#N (stereo not drawn)
22 | 10 | 20 |  | CC(Cl)(Cl)[C@H](NC(=O)c1ccc(Cl)cc1)N/C(=N/c1cccnc1)NC#N
